Tests used:
Assay type in all cases: cell-based, human
Factor H [1] = assay: Western blot of Factor H expression in U251 cells; details: 10 μM, 1 day, cell extract
Description: (§1) Experiment 2 was designed to determine the effect of ATA, AQA, and AHA on the expression and release of Factor H and VEGF by U251 cells. Cells were grown in DMEM for 24 h at 37° C., after which ATA, AQA, or AHA was added to the medium at a final concentration of 10 μM and incubation carried out for a further 24 h. The medium was drawn off, and the cells washed with PBS. Lysis buffer was then added to the cells. Forty microliters of the cell lysate, or the supernatant media, were loaded onto 12% polyacrylamide gels and separated under non-reducing conditions (70 V, 3-6 h). Following SDS-PAGE, proteins were transferred to a PVDF membrane (Bio-RadTM, CA) at 30 mA for 2 h. The membranes were blocked with 5% milk in PBS-T (80 mM Na2HPO4, 20 mM NaH2PO4, 100 mM NaCl, 0.1% Tween 20, pH 7.4) for 1 h, and incubated overnight at 4° C. with primary antibodies for Factor H (CytotechTM, goat 1/1000) and for VEGF (MilliporeTM, rabbit 1/2000). The membranes were then washed 3 times with PBST. They were then treated with an appropriate horseradish peroxidase (HRP)-conjugated secondary antibody for 3 h at room temperature. The secondary antibodies were anti-rabbit IgG (P0448, DAKOTM, Mississauga, Ontario, CA, 1/2,000) and anti-goat IgG (A[…], MilliporeTM, Billerica, Ma, 1/3,000). […]

A549 cells = assay: DNA laddering (apoptosis) in A549 cells; details: 10 μM, 1 day, agarose gel
Description: (§2) For determination of DNA laddering, which is indicative of DNA disintegration, cells were precipitated by centrifugation, washed, and lysed with […] Tris-HCl, 5 mM EDTA, and 3% Triton-X-100. The lysates were incubated at 37° C. for 1 h and then centrifuged at 12,000g for 10 min. They were treated with phenol/chloroform/isoamylalcohol (25:24:1) and chloroform/isoamylalcohol (24:1) twice each, and precipitated with 0.6 volume isopropyl alcohol and 0.1 volume 3 M sodium actate at −20° C. for 30 min. The precipitates were centrifuged at 12,000 g for 20 min, washed with 70% ethanol and dissolved with TE buffer containing 2 μg/mL bovine RNase. DNAs were electrophoresed in 10 μg/mL ethidium bromide containing 2% w/v agarose gel.
The protocol was identical to that used in Experiment 7 except A549 cells were used.

VEGF = assay: Western blot of VEGF expression and release by BxPC-3 cells; details: 10 μM, 1 day; for expression of vascular endothelial growth factor (VEGF) in BxPC-3 cells: cell extract; for release of VEGF into the extracellular milieu by BxPC-3 cells: supernatant
Description: Experiment 2 was designed to determine the effect of ATA, AQA, and AHA on the expression and release of Factor H and VEGF by U251 cells. Cells were grown in DMEM for 24 h at 37° C., after which ATA, AQA, or AHA was added to the medium at a final concentration of 10 μM and incubation carried out for a further 24 h. The medium was drawn off, and the cells washed with PBS. Lysis buffer was then added to the cells. Forty microliters of the cell lysate, or the supernatant media, were loaded onto 12% polyacrylamide gels and separated under non-reducing conditions (70 V, 3-6 h). Following SDS-PAGE, proteins were transferred to a PVDF membrane (Bio-RadTM, CA) at 30 mA for 2 h. The membranes were blocked with 5% milk in PBS-T (80 mM Na2HPO4, 20 mM NaH2PO4, 100 mM NaCl, 0.1% Tween 20, pH 7.4) for 1 h, and incubated overnight at 4° C. with primary antibodies for Factor H (CytotechTM, goat 1/1000) and for VEGF (MilliporeTM, rabbit 1/2000). The membranes were then washed 3 times with PBST. They were then treated with an appropriate horseradish peroxidase (HRP)-conjugated secondary antibody for 3 h at room temperature. The secondary antibodies were anti-rabbit IgG (P0448, DAKOTM, Mississauga, Ontario, CA, 1/2,000) and anti-goat IgG (A[…], MilliporeTM, Billerica, Ma, 1/3,000). The bands were visualized with an enhanced chemiluminescence system and exposure to photographic film (Hyperfilm ECLTM, AmershamTM Pharmacia Biotech, Little Chalfont, UK). For reprobing of membranes with an alternative antibody, the membranes were treated with 10 mL of stripping buffer (3 mL of 1 M Tris-HCl pH 6.7, 10 mL of 10% SDS, 347 μL of 14 M mercaptoethanol, and 36.5 mL deionized water) at 60° C. for 1 h. The membrane was then placed on a shaking incubator for 30 min to clear it of all bound antibodies. The stripped membrane was then treated with a different primary antibody as previously described. Experiment 6 was designed to determine the effect of ATA, AQA, and AHA on the expression and release of Factor H and VEGF by BxPC-3 cells.

BxPC-3 cells = assay: DNA laddering (apoptosis) in BxPC-3 cells; details: 10 μM, 1 day, agarose gel
Description: as §2

Factor H [2] = assay: Western blot of Factor H expression in BxPC-3 cells; details: 10 μM, 1 day, cell extract
Description: as §1

Row | Substance | expression of Factor H in U251 cells (Factor H [1]) | DNA fragmentation (180 bp laddering) in A549 cells (A549 cells) | expression of vascular endothelial growth factor (VEGF) in BxPC-3 cells (VEGF) | release of VEGF into the extracellular milieu by BxPC-3 cells (VEGF) | DNA fragmentation (180 bp laddering) in BxPC-3 cells (BxPC-3 cells) | expression of Factor H in BxPC-3 cells (Factor H [2])
1 | aurin hexacarboxylic acid [AHA] | reducing expression | induced DNA fragmentation | reducing expression | reducing release | induced DNA fragmentation | reducing expression
2 | aurin quadracarboxylic acid [AQA] | reducing expression | induced DNA fragmentation | reducing expression | reducing release | induced DNA fragmentation | reducing expression

Source: patent publication US10653651B2, “Kit for treating cancer with low molecular weight components of aurin tricarboxylic acid complex” (Aurin Biotech Inc., priority 2014, dated 2020)
